Experimental data: paper PMC11440381, “Facile and scale-up syntheses of high-performance enzyme@meso-HOF biocatalysts” (Chemical Science, 2024)

Target: T1, horseradish peroxidase (HRP) (Armoracia rusticana, UniProt P00433)
T1 construct: gene PRXC1A; free or encapsulated in HOF-PTBA
T1 sequence (P00433 31-338): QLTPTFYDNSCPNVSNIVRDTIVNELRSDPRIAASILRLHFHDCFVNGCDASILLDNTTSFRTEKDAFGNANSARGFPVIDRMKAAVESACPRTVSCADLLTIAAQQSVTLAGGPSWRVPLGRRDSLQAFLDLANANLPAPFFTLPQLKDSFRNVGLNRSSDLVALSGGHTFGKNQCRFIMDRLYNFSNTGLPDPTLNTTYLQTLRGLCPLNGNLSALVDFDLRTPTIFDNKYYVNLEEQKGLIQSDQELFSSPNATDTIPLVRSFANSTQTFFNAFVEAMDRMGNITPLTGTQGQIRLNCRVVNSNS
Experiment: GOx-HRP cascade, UV-vis of oxidised TMB
Assay type: biochemical
Conditions: co-substrate H2O2 made by GOx from glucose; free GOx&HRP mixture and GOx&HRP@HOF-PTBA both tested

Cc1cc(-c2cc(C)c(N)c(C)c2)cc(C)c1N [TMB]
GOx-HRP cascade, UV-vis of oxidised TMB: H2O2 subsequently acting as a substrate for HRP to catalyze the oxidation of TMB
